Test [1] concerns the target T1, human TRPA1 (Homo sapiens, UniProt O75762).
T1 construct: expressed in transfected cells; host or cells: N2a cells
Briefly: Ca2+ transient in N2a cells transfected with human TRPA1, evoked by AITC. Type of test: cell-based. The conditions noted are these: for inhibitory activity against human TRPA1: 5 μM compound. On the procedure:
Compounds were tested for their effect on TRPA1. N2a permanent cells were transfected with human TRPA1 cDNA, using a pcDNA3.1 expression plasmid. They were co-transfected with eGFP-expressing plasmid, or, for control, with eGFP plasmid only.
Cells were then pre-exposed to 5 μM of compounds 16-8 and 16-8/18hy for 10 min.
Averaged Ca2+ signal is shown from >75 cells. The resulting Ca2+ transient evoked by 60 μM AITC was reduced by >80% upon administration of compound 16-8 or 16-8/18hy at 5 μM, indicating appreciable TRPA1-inhibitory effects of both compounds.

Test [2] concerns the target TRPV4 (Homo sapiens, UniProt Q9HBA0). Briefly: TRPV4-mediated calcium influx in N2a cells with targeted expression of human TRPV4 (Ca2+ imaging, activation with 10 nM GSK101). Type of test: cell-based. More on the design: expressed in transfected cells; host or cells: N2a cells. The following applies: 2.5 μM inhibitor, pre-incubation 10 min. On the procedure:
Compounds (GSK205, 16-12, 16-13, 16-14, 16-18, 16-8, and 16-8/18hy) were tested for their effect on TRPV4-mediated calcium influx in N2a cultured cells with targeted expression of human TRPV4. Ca2+ imaging was performed according to Li et al. (Environ. Health Perspect. 2011, 119, 784-93) and Moore et al. (Proc. Natl. Acad. Sci. U.S.A. 2013, 110, E3225-E3234). Briefly, Ca2+ imaging of primary mouse epidermal keratinocytes (1° MK) in response to chemical activation of TRPV4 was conducted after loading with 2 μM fura2-AM, following a ratiometric Ca2+-imaging protocol with 340/380 nm blue light for dual excitation. Ratios of emissions were acquired at 0.5 Hz. ΔR/R0 was determined as the fraction of the increase of a given ratio over baseline ratio, divided by baseline ratio. For stimulation of cells with UVB, where fura-2 was not suitable because of the proximity of stimulation with 340/380 nm vs. 295 nm, 2 μM fluo4-AM was used instead. Ca2+ imaging was carried out at 488 nm excitation, acquisition of emissions at 0.5 Hz, expressed as ΔF/F0. TRPV4 was activated with 10 nM GSK101, a specific activator, which had no effect on RFP-transfected cells. Each of the […] compounds were added to a concentration of 2.5 μM, and its effect was observed.
The ordinate is the peak calcium concentration in the cells (average n>75 cells) in nM.

Test [3] relates to BL6 mice. Nature of the test: Formalin-evoked nocifensive behavior, whiskerpad injection pain model in mice. Type of test: in vivo, mouse. The following applies: for formalin-evoked nocifensive behavior at the 45-min time-point / formalin-evoked nocifensive behavior, time course: 0.5 mM/10 μL whiskerpad; for formalin-evoked nocifensive behavior, quantitation (in particular second phase): pre-injected into whiskerpad at 0.5 mM/10 μL, 15 min before formalin. As to the method:
Compounds were tested for their effect in reducing pain using an in vivo pain model in mice. For mouse formalin-evoked irritant behavior measurements, mice were well-fed, well-rested, and tested at the same time of day, at the same time-point of their circadian rhythm. They were allowed to acclimate to a plexiglas chamber for at least 30 min before testing, and received 10 μL subcutaneous injection of 4% of formalin (diluted from an aqueous solution of commercial 37% formaldehyde with normal saline (NS)) through a 30-gauge needle into the right whiskerpad, as further detailed in Luccarini et al. (J. Pain, 2006, 7, 908-914). Normal saline was used as control injection. After injection, mice were immediately placed back into the chamber and the rubbing behavior was recorded by a private consumer-type video-camera for a 45 min observation period. The recording time was divided into 9 blocks of 5 min, and a nociceptive score was determined per block by measuring the time that the animals spent rubbing the injected area predominantly with the ipsilateral fore-paw and rarely with hind-paw. This rubbing behavior with fore-paw is evoked by pain, which is distinct from itch behavior. Behavioral analysis was conducted by observers blinded to treatment.
To investigate the effects of the specific compounds GSK205, 16-8, and 16-8/18hy on formalin-induced nociceptive behavior, mice received a single subcutaneous injection of the compounds into the whiskerpad (10 μL, dissolved in 4% DMSO) 15 min before formalin injection. Control animals received the same volume of NS, 4% DMSO.
Note the biphasic response and “clean” controls. […] This concentration had no effect on residual nocifensive behavior in Trpv4−/− mice. […] Also note that none of the compounds influenced the first phase, which was caused by the direct irritation that formalin causes on peripheral whisker-pad nerve endings.

The subject of test [4] is mice. Nature of the test: UVB-overexposure evoked nocifensive behavior (sunburn model), topical treatment. Type of test: in vivo, mouse. The following applies: 0.5 mM in 40 μL. On the procedure:
Compounds were tested for their effect on nocifensive behavior (response to pain) following UVB overexposure. Behavioral tests were performed to evaluate the decrease in withdrawal thresholds in response to mechanical von Frey hair or thermal stimuli applied to hind paws. The Von-Frey apparatus (Ugo Basile) applied a mechanical stimulus with a flexible steel wire from underneath the hind paw. The force leading to withdrawal was determined. For the thermal stimuli test, paws were stimulated with heat from underneath applied by an infrared beam (Hargreave's test apparatus; Ugo Basile), and withdrawal latencies were recorded. The withdrawal thresholds were ascertained before and after UV exposure. Mice were exposed to UVB 3-5 days after the last application of tam/oil, using a Bio-Rad Gel Doc 2000 UV transilluminator (302 nm) for 5 min with an exposure of 600 mJ/cm^2. This represents 5-10 times the minimal erythema-inducing dose, in keeping with the rationale of inducing sunburn and studying sunburn-evoked pain.

Sequence of TRPV4 (Q9HBA0 whole entry): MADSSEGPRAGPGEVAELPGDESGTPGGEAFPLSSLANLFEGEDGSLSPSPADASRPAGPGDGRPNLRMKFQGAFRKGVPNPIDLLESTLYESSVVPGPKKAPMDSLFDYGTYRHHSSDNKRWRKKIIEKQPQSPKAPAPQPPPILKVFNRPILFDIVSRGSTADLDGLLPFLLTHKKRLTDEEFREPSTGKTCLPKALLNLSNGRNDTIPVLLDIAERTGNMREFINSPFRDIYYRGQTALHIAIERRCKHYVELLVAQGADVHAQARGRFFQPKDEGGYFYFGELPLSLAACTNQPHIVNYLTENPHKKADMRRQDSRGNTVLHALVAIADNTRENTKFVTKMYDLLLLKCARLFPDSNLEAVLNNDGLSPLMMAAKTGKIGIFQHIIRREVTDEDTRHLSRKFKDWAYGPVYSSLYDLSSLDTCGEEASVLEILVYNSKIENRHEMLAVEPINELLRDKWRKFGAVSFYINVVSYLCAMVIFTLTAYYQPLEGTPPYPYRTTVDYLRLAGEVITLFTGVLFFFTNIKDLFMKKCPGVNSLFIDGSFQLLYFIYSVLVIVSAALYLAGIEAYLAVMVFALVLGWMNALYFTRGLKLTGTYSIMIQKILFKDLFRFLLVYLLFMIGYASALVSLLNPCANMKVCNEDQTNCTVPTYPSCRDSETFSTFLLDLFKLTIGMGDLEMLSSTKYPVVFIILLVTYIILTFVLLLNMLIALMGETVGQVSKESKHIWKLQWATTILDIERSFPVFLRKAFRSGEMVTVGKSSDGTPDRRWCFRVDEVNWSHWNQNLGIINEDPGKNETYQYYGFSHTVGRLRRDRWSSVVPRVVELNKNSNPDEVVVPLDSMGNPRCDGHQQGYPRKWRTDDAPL
T1 sequence (O75762 whole entry): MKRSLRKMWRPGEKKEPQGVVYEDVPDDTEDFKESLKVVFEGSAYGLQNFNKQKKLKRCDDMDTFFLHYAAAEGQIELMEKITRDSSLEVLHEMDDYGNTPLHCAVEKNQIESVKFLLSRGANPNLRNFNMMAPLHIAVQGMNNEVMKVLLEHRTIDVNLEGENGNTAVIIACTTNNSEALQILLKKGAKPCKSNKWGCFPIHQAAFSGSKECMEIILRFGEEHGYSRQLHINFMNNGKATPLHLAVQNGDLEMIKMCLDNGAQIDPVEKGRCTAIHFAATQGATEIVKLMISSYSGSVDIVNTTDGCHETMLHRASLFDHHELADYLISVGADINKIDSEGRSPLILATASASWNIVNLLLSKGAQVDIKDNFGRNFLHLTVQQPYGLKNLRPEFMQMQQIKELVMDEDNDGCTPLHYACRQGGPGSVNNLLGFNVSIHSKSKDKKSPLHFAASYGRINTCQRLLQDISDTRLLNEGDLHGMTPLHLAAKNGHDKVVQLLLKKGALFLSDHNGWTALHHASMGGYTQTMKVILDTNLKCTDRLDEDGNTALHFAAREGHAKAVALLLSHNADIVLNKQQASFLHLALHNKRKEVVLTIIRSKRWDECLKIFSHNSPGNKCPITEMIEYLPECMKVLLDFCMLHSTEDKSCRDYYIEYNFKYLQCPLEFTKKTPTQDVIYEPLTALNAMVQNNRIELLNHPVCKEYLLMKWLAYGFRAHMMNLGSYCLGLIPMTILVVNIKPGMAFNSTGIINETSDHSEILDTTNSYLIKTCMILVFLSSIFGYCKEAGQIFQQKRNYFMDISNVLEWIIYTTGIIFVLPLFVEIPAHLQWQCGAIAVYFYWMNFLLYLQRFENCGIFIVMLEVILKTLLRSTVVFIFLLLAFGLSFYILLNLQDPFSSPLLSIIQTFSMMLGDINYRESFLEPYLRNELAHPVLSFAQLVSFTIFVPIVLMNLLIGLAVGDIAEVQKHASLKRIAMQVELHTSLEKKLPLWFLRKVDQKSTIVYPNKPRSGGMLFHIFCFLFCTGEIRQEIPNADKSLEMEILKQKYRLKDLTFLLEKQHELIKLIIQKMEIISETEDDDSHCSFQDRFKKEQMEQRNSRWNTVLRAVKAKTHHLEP

With `CCN(CCc1ccc(Nc2nc(-c3ccccc3)cs2)cc1)Cc1ccccc1` [16-8/18hy], in test [1], the “inhibitory activity against human TRPA1” value is listed as “showed inhibitory activity”. Further, the “inhibition of TRPV4-mediated calcium influx (peak calcium concentration in the cells)” value in test [2] was “did not show enhanced inhibition over 16-8”. In addition, in test [3], the “formalin-evoked nocifensive behavior at the 45-min time-point” value is “reversal to control levels”; the “formalin-evoked nocifensive behavior, time course” value is listed as “significantly attenuated nocifensive behavior”; the “formalin-evoked nocifensive behavior, quantitation (in particular second phase)” value is recorded as “significant attenuation of nocifensive behavior”.

As for `CN(CCc1ccc(Nc2nc(-c3ccccc3)cs2)cc1)Cc1ccccc1` [Compound 16-8], the “UVB-overexposure evoked nocifensive behavior (response to pain)” value in test [4] was “especially effective in reducing the response to pain”. Further, the “inhibitory activity against human TRPA1” value in test [1] is “showed inhibitory activity”. Besides, in test [2], the “inhibition of TRPV4-mediated calcium influx (peak calcium concentration in the cells)” value is reported as “most potent”. In test [3], the “formalin-evoked nocifensive behavior at the 45-min time-point” value is on record as “reduction to control levels”; the “formalin-evoked nocifensive behavior, time course” value is on record as “significantly attenuated nocifensive behavior”; the “formalin-evoked nocifensive behavior, quantitation (in particular second phase)” value is listed as “significant attenuation of nocifensive behavior”.

On to `CN(CCc1ccc(Nc2nc(-c3cccnc3)cs2)cc1)Cc1ccccc1` [GSK205], for which the “UVB-overexposure evoked nocifensive behavior (response to pain)” value in test [4] is reported as “as effective as vehicle”. Moreover, the “inhibition of TRPA1 activity” value in test [1] (doses below or equaling 25 μM) is given as “did not inhibit TRPA1 activity”. Moreover, in test [2], the “inhibition of TRPV4-mediated calcium influx (peak calcium concentration in the cells)” value was “very low potency”. Further, in test [3], the “formalin-evoked nocifensive behavior, time course” value is “not different from control” and the “formalin-evoked nocifensive behavior, quantitation (in particular second phase)” value is given as “lack of effect”.

Source of the values: patent US11229628B2, “TRPA1 and TRPV4 inhibitors and methods of using the same for organ-specific inflammation and itch” (Duke University, priority 2015, dated 2022).
